The values below come from US10633389B2, “CARM1 inhibitors and uses thereof” (Epizyme, Inc., priority 2013, dated 2020).

The structures appear in SMILES notation.

For the assay, the system named is asymmetric di-methyl PABP1 in RKO cells. As to the kind of experiment: RKO methylation assay, In Cell Western (ICW) for asymmetric di-methyl PABP1. The format is cell-based. As to conditions: Homo sapiens, RKO, Cellular potencies, ICW PABP1me2a. In short, it runs like this:
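RKO cells treated with compound for 48 h at 37 °C, then fixed, permeabilized and immunostained for asymmetric di-methyl PABP1, with DRAQ5 as DNA stain. Infrared 700/800 nm signal ratio normalized to DMSO and 20 μM reference-compound controls; IC50 from triplicate wells.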
Regarding `CNCC(O)COc1cccc(-c2nc(N[C@@H]3CCOC3)c(C)c(N3CCC[C@H]4CN(Cc5ccccc5)C[C@H]43)n2)c1` (some centres unmarked) [Example 378-1a], the IC50 – broadly, the concentration needed to halve the response being measured – lay in the range of 10 to 20 µM.

The compound `CNCC(O)COc1cc(Cl)cc(-c2nc(-c3ccncc3)c(C)c(N(C)[C@H]3CCOC3)n2)c1` (some centres unmarked) [Example 334-1a] displayed an IC50 of 10 to 20 µM.

As to `CNCC(O)COc1cc(Cl)cc(-c2nc(-c3ccncc3C3CC3)cc(N(C)C3CCOCC3)n2)c1` (centres unmarked) [Example 522-1a], the IC50 was 5 to 10 µM.

On to `CNC[C@@H](O)COc1ccc(F)c(-c2nc(N[C@H]3CCN(C(=O)OC)C[C@H]3F)c(C)c(-c3c(C)noc3C)n2)c1` [Example 64-3], for which the IC50 is under 5 µM.

The compound `CNCC(O)COc1cccc(-c2nc(-c3c(C)noc3C)c(C)c(N3CCCC4(CN(C(=O)N(C)C)C4)C3)n2)c1` (centres unmarked) [Example 297-1a] gave an IC50 of 5 to 10 µM.

In turn, `CNC[C@@H](O)COc1ccc(Cl)c(-c2nc(-c3c(C)noc3C)c(C)c(N3Cc4cnc(C)nc4C3)n2)c1` [Example 245-3] yielded an IC50 of under 5 µM.

`CNCC(O)COc1cccc(-c2nc(-c3c(C)noc3C)cc(N3CCC4(CC3)NC(=O)NC4=O)n2)c1` (centres unmarked) [Example 42-1a] yielded an IC50 of 10 to 20 µM.

`CNC[C@@H](O)COc1ccc(Cl)c(-c2nc(-c3c(C)noc3C)c(C)c(N3Cc4nc(C)sc4C3)n2)c1` [Example 192-3] had an IC50 of under 5 µM.

In turn, `CCO[C@H]1CCC[C@H]1N(CC)c1nc(-c2cc(OC[C@H](O)CNC)ccc2Cl)nc(-c2c(C)noc2C)c1C` [Example 255-3] showed an IC50 of 5 to 10 µM.

`CNCC(O)COc1cccc(-c2nc(-c3ccc(S(C)(=O)=O)cc3)cc(N(C)C3CCOCC3)n2)c1` (centres unmarked) [Example 499-1a] gave an IC50 of under 5 µM.

`CNCC(O)COc1cccc(-c2nc(N[C@@H]3CCOC3)c(C)c(N3CCN(CC(F)F)CC3)n2)c1` (some centres unmarked) [Example 458-1a] had an IC50 of under 5 µM.

`CNCC(O)COc1cccc(-c2nc(N3CCC4(CCO4)CC3)cc(N(C)C3CCOCC3)n2)c1` (centres unmarked) [Example 579-1a] registered an IC50 of 10 to 20 µM.

Consider `CNC[C@@H](O)COc1ccc(Cl)c(-c2nc(N[C@@H]3CCN(C)C[C@@H]3F)c(Cl)c(-c3c(C)noc3C)n2)c1` [Example 210-3], for which the half-maximal inhibitory concentration (IC50) was under 5 µM.

Compound `CNCC(O)COc1cccc(-c2nc(NC3CCOC(C)(C)C3)c(C)c(-c3c(C)noc3C)n2)c1` (centres unmarked) [Example 290-1a] gave a half-inhibitory concentration (IC50) of under 5 µM.

The compound `CNCC(O)COc1cccc(-c2nc(N[C@@H]3CCOC3)c(C)c(N3CCC3)n2)c1` (some centres unmarked) [Example 377-1a] showed an IC50 of 10 to 20 µM.

Compound `CNC[C@@H](O)COc1cccc(-c2nc(NC3CCN(C(=O)OC)CC3)cc(-c3c(C)nnn3C)n2)c1` [Example 278-3] yielded an IC50 of 10 to 20 µM.

`CNCC(O)COc1cccc(-c2nc(-c3c(C)noc3C)cc(N3CCN(CC(F)F)[C@H](C)C3)n2)c1` (some centres unmarked) [Example 174-1a] had an IC50 of under 5 µM.

`CNCC(O)COc1cccc(-c2nc(NCC3CCOCC3)c(F)c(-c3c(C)noc3C)n2)c1` (centres unmarked) [Example 143-1a] showed an IC50 of under 5 µM.

On to `CNC[C@@H](O)COc1ccc(Cl)c(-c2nc(NC3CC4(C3)CN(C(=O)OC)C4)c(C)c(-c3c(C)noc3C)n2)c1` [Example 146-3], for which the IC50 was under 5 µM.

The compound `CNCC(O)COc1cccc(-c2nc(Nc3cn(C)cn3)c(C)c(-c3c(C)noc3C)n2)c1` (centres unmarked) [Example 210-1a] returned an IC50 of under 5 µM.

Consider `CNCC(O)COc1cccc(-c2nc(-c3c(C)noc3C)c(C)c(N(C)C3CCN(C(=O)OC)CC3)n2)c1` (centres unmarked) [Example 89-1a], for which the IC50 is under 5 µM.

Regarding `CNCC(O)COc1cccc(-c2nc(NC3C[C@@H](O)[C@H](O)C3)c(C)c(-c3c(C)noc3C)n2)c1` (some centres unmarked) [Example 280-1a], the IC50 is 10 to 20 µM.

Turning to `CNC[C@@H](O)COc1ccc(F)c(-c2nc(NC3CCN(C(=O)OC)CC3)c(C)c(-c3c(C)noc3C)n2)c1` [Example 40-3], the IC50 was under 5 µM.

The compound `CNCC(O)COc1cccc(-c2nc(-c3c(C)noc3C)cc(N(C)CC3CCOCC3)n2)c1` (centres unmarked) [Example 87-1a] came in with an IC50 of under 5 µM.

In turn, `CNC[C@@H](O)COc1cccc(-c2nc(NC3CCOCC3)c(C)c(-c3c(C)noc3C)n2)c1` [Example 56-1a] yielded an IC50 of under 5 µM.

Compound `CNCC(O)COc1cccc(-c2nc(N[C@@H]3CCOC3)c(C)c(N3CCCC4(CN(CC(F)F)C4)C3)n2)c1` (some centres unmarked) [Example 469-1a] had an IC50 of 5 to 10 µM.

`CNC[C@@H](O)COc1ccc(Cl)c(-c2nc(NC3CCOCC3)c(C)c(-c3c(C)noc3C)n2)c1` [Example 127-3]: the IC50 is under 5 µM.

In the case of `CNCC(O)COc1cccc(-c2nc(-c3c(C)noc3C)c(C)c(N3CCNC(C(F)F)C3)n2)c1` (centres unmarked) [Example 47-3], the IC50 fell in the range of 10 to 20 µM.

Consider `CNCC(O)COc1cccc(-c2nc(-c3c(C)noc3C)cc(N3CCN(S(C)(=O)=O)[C@@H](C)C3)n2)c1` (some centres unmarked) [Example 92-1a], for which the IC50 is under 5 µM.

In turn, `CNCC(O)COc1cccc(-c2nc(-c3cnn(CC(C)C)c3)cc(N(C)CCC#N)n2)c1` (centres unmarked) [Example 41-1] displayed an IC50 of 10 to 20 µM.

Compound `CNCC(O)COc1cccc(-c2nc(OCC3CCN(C(C)=O)CC3)c(C)c(-c3c(C)noc3C)n2)c1` (centres unmarked) [Example 287-1a] displayed an IC50 of under 5 µM.

`CNCC(O)COc1cccc(-c2nc(N[C@H]3CC[C@H](O)CC3)cc(-c3c(C)noc3C)n2)c1` (some centres unmarked) [Example 32-1a]: the IC50 is 10 to 20 µM.

`CNCC(O)COc1cccc(-c2nc(NC3CCCN(S(C)(=O)=O)C3)c(C)c(-c3c(C)noc3C)n2)c1` (centres unmarked) [Example 198-1a] gave an IC50 of under 5 µM.

Regarding `CNCC(O)COc1cccc(-c2nc(-c3c(C)noc3C)cc(N3CCN(C)[C@@H](C)C3)n2)c1` (some centres unmarked) [Example 93-1a], the IC50 is under 5 µM.

As to `CNC[C@H](O)COc1ccc(F)c(-c2nc(NCCC(C)(C)OC)c(C)c(-c3c(C)noc3C)n2)c1` [Example 83-3], the half-maximal inhibitory concentration (IC50) was under 5 µM.

With `CNCC(O)COc1ccc(Cl)c(-c2nc(NC[C@H]3COCCN3C3COC3)c(C)c(-c3c(C)noc3C)n2)c1` (some centres unmarked) [Example 2-3], the IC50 is under 5 µM.

The compound `CNCC(O)COc1ccc(Cl)c(-c2nc(NC[C@H]3CCCO3)c(C)c(-c3c(C)noc3C)n2)c1` (some centres unmarked) [Example 6-3] displayed an IC50 of under 5 µM.

`CNCC(O)COc1cc(Cl)cc(-c2nc(-c3cnn(C)c3)cc(N(C)C3CCOCC3)n2)c1` (centres unmarked) [Example 610-1a] had an IC50 of 10 to 20 µM.

Regarding `CNCC(O)COc1cccc(-c2nc(NCCCN3CCCCCC3=O)cc(-c3c(C)noc3C)n2)c1` (centres unmarked) [Example 99-1a], the IC50 is under 5 µM.

The compound `CNC[C@@H](O)COc1ccc(Cl)c(-c2nc(-c3c(C)noc3C)c(C)c(N3Cc4ccncc4C3)n2)c1` [Example 159-3] registered an IC50 of under 5 µM.

For the compound `CNCC(O)COc1cccc(-c2nc(NC3CCC3)c(C)c(-c3c(C)noc3C)n2)c1` (centres unmarked) [Example 292-1a], the IC50 is under 5 µM.

For `CNCC(O)COc1cccc(-c2nc(-c3cnc4c(C(=O)OC)cnn4c3)cc(N(C)C3CCOCC3)n2)c1` (centres unmarked) [Example 482-1a], the IC50 is under 5 µM.

Take `CNCC(O)COc1cccc(-c2nc(NC[C@H]3COCCN3CC(F)F)c(C)c(-c3c(C)noc3C)n2)c1` (some centres unmarked) [Example 274-1a]: the IC50 is under 5 µM.

The compound `CCOC(=O)N1CCC2(C1)CN(c1nc(-c3cc(OC[C@H](O)CNC)ccc3Cl)nc(-c3c(C)noc3C)c1C)C2` [Example 287-3] displayed an IC50 of under 5 µM.

`CNCC(O)COc1cccc(-c2nc(NC3CCOCC3)c(C)c(-c3c(C)noc3CO)n2)c1` (centres unmarked) [Example 145-3] displayed an IC50 of 10 to 20 µM.

`CNCC(O)COc1cccc(-c2nc(N[C@H]3C[C@H](C(C)(C)O)C3)c(C)c(-c3c(C)noc3C)n2)c1` (some centres unmarked) [Example 231-1a] displayed an IC50 of under 5 µM.

`CNCC(O)COc1cccc(-c2nc(NC3CCOC3)c(C)c(N3CCNC[C@H]3C)n2)c1` (some centres unmarked) [Example 352-1a] gave a half-maximal inhibitory concentration (IC50) of 10 to 20 µM.

Regarding `CNC[C@@H](O)COc1ccc(F)c(-c2nc(-c3c(C)noc3C)c(C)c(N3CC4(CCCCO4)C3)n2)c1` [Example 269-3], the IC50 was under 5 µM.

Take `CNC[C@@H](O)COc1ccc(Cl)c(-c2nc(NC[C@@H]3CCCO3)c(C)c(-c3c(C)noc3C)n2)c1` [Example 131-3]: the IC50 was under 5 µM.

With `CNCC(O)COc1cccc(-c2nc(NC(C)C3CCOCC3)c(C)c(-c3c(C)noc3C)n2)c1` (centres unmarked) [Example 157-1a], the IC50 is under 5 µM.

With `CNC[C@H](O)COc1ccc(Cl)c(-c2nc(NC3CCN(C(=O)OC)CC3)c(Cl)c(-c3c(C)noc3C)n2)c1` [Example 305-1a], the IC50 was under 5 µM.

`CNC[C@@H](O)COc1cccc(-c2nc(-c3c[nH]c4ncncc34)cc(N(C)C3CCOCC3)n2)c1` [Example 571-1a]: the IC50 was 10 to 20 µM.

With `CNCC(O)COc1cccc(-c2nc(N(C)C3CCOCC3)cc(N3C[C@@H]4C[C@H]3CN4C)n2)c1` (some centres unmarked) [Example 543-1a], the IC50 was in the range of 10 to 20 µM.

For `CNC[C@@H](O)COc1ccc(Cl)c(-c2nc(N[C@@H]3CO[C@@H](C)C3)c(C)c(-c3c(C)noc3C)n2)c1` [Example 162-3], the IC50 was under 5 µM.

The compound `CCOC(=O)N1CCCCC1CNc1nc(-c2cc(OC[C@H](O)CNC)ccc2Cl)nc(-c2c(C)noc2C)c1C` (some centres unmarked) [Example 28-3] gave an IC50 of under 5 µM.

In turn, `CNC[C@@H](O)COc1ccc(Cl)c(-c2nc(-c3c(C)noc3C)c(C)c(N3Cc4cn(C(C)C)nc4C3)n2)c1` [Example 272-3] returned an IC50 of under 5 µM.

The compound `CNC[C@@H](O)COc1ccc(Cl)c(-c2nc(-c3c(C)noc3C)c(C)c(N3C[C@H]4COC[C@H]4C3)n2)c1` [Example 186-3] had an IC50 of under 5 µM.

`CNCC(O)COc1cc(Cl)cc(-c2nc(Nc3cncnc3)c(C)c(N(C)C3CCOCC3)n2)c1` (centres unmarked) [Example 506-1a] gave an IC50 of under 5 µM.

For the compound `CNCC(O)COc1cccc(-c2nc(-c3c(C)noc3C)c(C)c(N3CCO[C@@H](CN(C)S(C)(=O)=O)C3)n2)c1` (some centres unmarked) [Example 150-1a], the IC50 was 5 to 10 µM.

Compound `CNC[C@@H](O)COc1ccc(F)c(-c2nc(-c3c(C)noc3C)c(C)c(N3Cc4nccnc4C3)n2)c1` [Example 226-3] had an IC50 of under 5 µM.

`CNCC(O)COc1ccc(Cl)c(-c2nc(NCC3CCOC3)c(C)c(-c3c(C)noc3C)n2)c1` (centres unmarked) [Example 30-3] registered an IC50 of under 5 µM.

As for `CNCC(O)COc1cccc(-c2nc(C3=CCCC3)cc(N(C)C3CCOCC3)n2)c1` (centres unmarked) [Example 621-1a], the IC50 was in the range of 10 to 20 µM.
